# Entries after “also recorded” stand apart in the source; their conditions may differ.
# Columns and labels:
# mouse PD-L1 (mPD-L1) = target: T1, mouse PD-L1 (mPD-L1) (Mus musculus, UniProt Q9EP73); assay: Radiolabeled [35S] peptide binding assay on mPD-L1; details: [35S]-labeled peptide
# T1 construct: The expression construct for mPD-L1 consisted of its extracellular domain (from A18 to H239) with a methionine added to the N-terminus; hexahistidine tag (C); made in house; host or cells: E. coli BL21 (DE3)
# Protocol: SPAM Peptide Selectively Binds to hPD-L1. SPAM was also tested for binding specificity towards mouse PD-L1 (mPD-L1) and human PD-L2 (hPD-L2) using radioactive binding assays. SPAM peptide mRNA was translated in vitro in the presence of [^35S]-methionine to generate [^35S]-labeled SPAM peptide.
# (§1) [^35S]-labeled peptides were translated as described above by including 2 μCi labeled methionine (Perkin Elmer) per 10 pmol of template in the translation reaction. Each peptide was tested with a […] (for X9-library derived peptides) (SEQ ID NO: 11) or a […] (for X17-library derived peptides) (SEQ ID NO: 12) C-terminal sequence. […] The supernatant was removed and was counted. The beads were subsequently washed three times with 1 mL of blocking buffer and the washes were also counted. Finally, the beads were resuspended in 1 mL of blocking buffer and were counted separately. The ratio of the counts remaining on the beads to the total counts added to the binding reaction (the sum of the counts for supernatant, washes, and beads) was calculated to determine the percent bound.
# hPD-L1 [1] = target: T2, hPD-L1 (Homo sapiens, UniProt Q9NZQ7); assay: Fluorescence polarization of ROX-labeled SPAM with glycosylated hPD-L1*; assay type: binding; set-up: The hPD-L1* vector included amino acids A18-T239, an Avi Tag and a hexahistidine tag; hexahistidine tag; made in house; host or cells: Expi293F; details: T=22° C., 100 nM ROX-SPAM, read-out: dissociation constant (KD) for hPD-L1*
# Protocol: (§2) To evaluate the affinity of SPAM for hPD-L1 and hPD-L1*, we measured the KD by fluorescence polarization. […] The resulting values were plotted against the concentration of hPD-L1 or hPD-L1* and fit to a one-site saturation binding model with GraphPad Prism.
# (§3) A stock solution of hPD-L1 or hPD-L1* with a 5 μM starting concentration was prepared and serially diluted to concentrations ranging from 5 μM to 2.4 nM. […] The fluorescence polarization of each sample was measured on a Synergy H4 Hybrid Multi-Mode Microplate Reader. Each measurement was carried out in triplicate and the mean value was calculated. The values were fit to a one-site saturation binding model in GraphPad Prism to obtain the corresponding equilibrium dissociation constants.
# Target sequence in this assay (Q9NZQ7 18-239): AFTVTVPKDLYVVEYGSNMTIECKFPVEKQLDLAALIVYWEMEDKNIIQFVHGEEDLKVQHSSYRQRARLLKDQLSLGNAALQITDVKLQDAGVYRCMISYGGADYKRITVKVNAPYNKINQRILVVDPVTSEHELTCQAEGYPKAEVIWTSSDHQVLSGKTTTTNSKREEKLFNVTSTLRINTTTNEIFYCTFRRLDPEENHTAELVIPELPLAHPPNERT
# hPD-L1 [2] = target: T2, hPD-L1; assay: Fluorescence polarization of ROX-labeled SPAM with hPD-L1; assay type: binding; set-up: designed from A18 to T239 with a methionine added to the N-terminus; hexahistidine tag (C); made in house
# Protocol: as §2, §3
# Target sequence in this assay (Q9NZQ7 with tags, fused parts or gaps): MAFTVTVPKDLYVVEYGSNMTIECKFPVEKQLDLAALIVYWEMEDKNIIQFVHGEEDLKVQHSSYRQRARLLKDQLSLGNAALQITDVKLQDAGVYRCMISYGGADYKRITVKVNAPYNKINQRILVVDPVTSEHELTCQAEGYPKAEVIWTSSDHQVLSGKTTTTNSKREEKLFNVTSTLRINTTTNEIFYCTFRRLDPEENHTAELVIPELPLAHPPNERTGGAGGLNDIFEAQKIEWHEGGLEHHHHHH
# hPD-L1 [3] = target: T2, hPD-L1; assay: Radiolabeled [35S] peptide binding assay on immobilized hPD-L1; set-up: designed from A18 to T239 with a methionine added to the N-terminus; hexahistidine tag (C); made in house; details: hPD-L1 on streptavidin agarose
# Protocol: as §1
# Target sequence in this assay (Q9NZQ7 with tags, fused parts or gaps): as above
# [4] = target: T3, CHO-mPD-L1 cells which express mPD-L1 (Mus musculus, UniProt Q9EP73); assay: Antibody competition by flow cytometry on CHO-mPD-L1 cells; assay type: cell-based; details: pre-treatment 0-20 μM, 50 nM antibody
# T3 construct: expressed in transfected cells; host or cells: CHO
# Protocol: We performed similar experiments with CHO-mPD-L1 cells which express mPD-L1 to determine if this effect was specific to hPD-L1 expression. We have developed two cross-reactive anti-hPD-L1/mPD-L1 antibodies, 16373 and 16377. These antibodies were labeled with Fluorescein, titrated against CHO-hPD-L1 and CHO-mPD-L1 cells (FIG. 12B-C) and subjected to competition experiments as described above.
# The cells were washed once with cold serum free DMEM and incubated with 1 nM FAM-Atezolizumab, 10 nM FAM-Avelumab, 50 nM FAM-16373, or 50 nM FAM-16377 in serum free DMEM at 4° C. for 30 min. Cells were then washed three times with cold serum free DMEM. Cells were subsequently processed by flow cytometry with a BD FACSCalibur system using the FL1 channel. FlowJo v10.1 was used to gate to the major population and median FL1 fluorescence reported.
# T1 sequence (Q9EP73 with tags, fused parts or gaps): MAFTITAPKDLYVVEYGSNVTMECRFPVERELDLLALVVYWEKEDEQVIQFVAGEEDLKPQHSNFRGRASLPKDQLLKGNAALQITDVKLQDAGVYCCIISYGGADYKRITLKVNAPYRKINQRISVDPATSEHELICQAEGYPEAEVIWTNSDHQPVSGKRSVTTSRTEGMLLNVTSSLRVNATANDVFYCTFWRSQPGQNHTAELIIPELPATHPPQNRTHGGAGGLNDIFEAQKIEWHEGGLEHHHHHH
# T3 sequence (Q9EP73 19-290): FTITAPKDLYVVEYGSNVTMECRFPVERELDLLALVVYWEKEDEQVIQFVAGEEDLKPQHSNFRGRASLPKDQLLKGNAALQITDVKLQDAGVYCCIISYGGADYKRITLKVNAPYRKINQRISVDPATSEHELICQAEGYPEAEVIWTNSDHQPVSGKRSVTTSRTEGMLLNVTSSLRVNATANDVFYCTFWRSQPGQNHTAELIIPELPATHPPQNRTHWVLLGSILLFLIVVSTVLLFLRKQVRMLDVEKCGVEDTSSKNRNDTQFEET
smiles,measurement,setting,value
C#CC[C@H](NC(=O)CNC(=O)[C@H](CO)NC(=O)[C@H](C)NC(=O)[C@H](Cc1ccc(O)cc1)NC(=O)[C@H](Cc1c[nH]cn1)NC(=O)[C@H](CC(C)C)NC(=O)[C@@H](NC(=O)[C@H](Cc1c[nH]c2ccccc12)NC(=O)[C@H](Cc1ccccc1)NC(=O)[C@H](CCCCN)NC(=O)[C@H](CC(N)=O)NC(=O)[C@H](CC(C)C)NC(=O)[C@@H](NC(=O)[C@H](Cc1c[nH]cn1)NC(=O)[C@H](CC(=O)O)NC(=O)[C@H](CC(C)C)NC(=O)[C@H](Cc1ccccc1)NC(=O)[C@@H](NC(=O)[C@@H]1CCCN1C(=O)[C@@H](N)CCSC)[C@@H](C)CC)[C@@H](C)CC)[C@@H](C)CC)C(N)=O (stereo in doubt) [SPAM],binding to mPD-L1,mouse PD-L1 (mPD-L1),not pulled-down; also recorded: essentially no binding; also recorded: no significant binding
same,Kd,hPD-L1 [1],67 nM
same,Kd,"hPD-L1 [2]; non-glycosylated hPD-L1, T=21° C., 100 nM ROX-SPAM, read-out: dissociation constant (KD) for hPD-L1",119 nM
same,Kd,"hPD-L1 [2]; range over glycosylated and non-glycosylated hPD-L1, read-out: KD for hPD-L1",67 to 119 nM
same,[35S]-labeled peptide pull-down by immobilized hPD-L1,hPD-L1 [3],efficiently pulled-down
same,blocking of Fluorescein-16373 and Fluorescein-16377 in CHO-mPD-L1 cells,[4],blocking was absent
